Reference: paper PMC9106035, “Synthesis, X-ray Structure and Biological Studies of New Self-Assembled Cu(II) Complexes Derived from s-Triazine Schiff Base Ligand” (Molecules, 2022)
Values after ≈ are worked out from the molar mass of the structure shown.

How the values were obtained:
[1] = DPPH radical scavenging assay; format: biochemical
Experimental: The studied Cu(II) complexes and the free ligands were assessed for their antioxidant activity levels using an α,α-diphenyl-β-picrylhydrazyl (DPPH) scavenging assay, and the results are given in Table 7. […] The results indicated better antioxidant activity for DMAT than for DMOHT, indicating the effect of the substituent at the phenyl moiety on the antioxidant activity level of the free ligand. […] On the other hand, the Cu(II) complexes have improved levels of antioxidant activity compared to the free ligands.
Method S3 DPPH Radical Scavenging Activity:
Freshly prepared (0.004 %w/v) methanol solution of 2,2-diphenyl-1-pi crylhydrazyl (DPPH) radical was prepared and stored at 10 °C in dark place. A methanolic solution of the test compound was prepared using the same procedure. A 40 uL aliquot of the methanol solution was added to 3mL of DPPH solution. Absorbance measurements were recorded immediately with a UV-visible spectrophotometer (Milton Roy, Spectronic 1201). The decrease in absorbance at 515 nm was determined continuously, with data being recorded at 1 min intervals until the absorbance stabilized (16 min). The absorbance of the DPPH radical without antioxidant (control) and the reference compound ascorbic acid were also measured.
All the determinations were performed in three replicates and averaged. The percentage inhibition (PI) of the DPPH radical was calculated according to the […]
PI = [{(AC- AT)/ AC} x 100] (1)
Where AC = Absorbance of the control at t = 0 min and AT = absorbance of the sample+DPPH at t = 16 min. The 50% inhibitory concentration (IC50), the concentration required t o inhibit DPPH radical by 50%, was estimated from graphic plots of the dose respons e curve.

[2] = test system: lung carcinoma A-549 cell line; test: Anticancer activity, MTT viability assay; format: cell-based
Experimental: The studied compounds were examined for their anticancer activity against the lung carcinoma A-549 cell line.
(§1) Method S4 Evaluation of Cytotoxic activity
(§2) The cells were propagated in Dulbecco’s modified Eagle’s medium (DMEM) supplemented with 10% heat-inactivated fetal bovine serum, 1 % L-glutamine, HEPES buffer and 50µg/mL Gentamycin. All cells were maintained at 37 °C in a humidified atmosphere with 5% CO2 and were subcultured tw o times a week.
(§3) Cytotoxicity evaluation using viability assay
(§4) For cytotoxicity assay, the cells were seeded in 96-well plate at a cell concentration of 1×10^4 cells per well in 100µl of growth medium. Fresh medium containing different concentrations of the test sample was added after 24 h of seeding. Serial two-fold dilutions of the tested chemical compound were added to confluent cell monolayers dispensed into 96-well, flat-bottomed microtiter plates (Falcon, NJ, USA) using a multichannel pipette. The microtiter plates were incubated at 37 °C in a humidified incubator with 5% CO2 for a period of 24 h. Three wells were used for each concentration of the test sample. Control cells were incubated without test sample and with or without DMSO. The little percentage of DMSO present in the […]
(§5) cells for at 37°C, for 24 h, the viabl e cells yield was determined by the MTT test.
(§6) Briefly, the media was removed from the 96 well plate and replaced with 100 µL of fresh culture DMEM m edium without phenol red then 10 µL of the 12 mM MTT stock solution (5 mg of MTT in 1 mL of PBS) to each well including the untreated controls. The 96 well plates were then incubated at 37°C and 5% CO2 for 4 hours. An 85 µL aliquot of the media was removed from t he wells, and 50 µL of DMSO was added to each well and mixed thoroughly with the pipette and incubated at 37°C for 10 min. Then, the optical density was measured at 590 nm with the microplate reader (SunRise, TECAN, Inc, USA) to determine the number of viable cells and the percentage of viability was calculat ed as [(ODt/ODc)]x100% where ODt i s the mean optical density of wells treated with the tested s ample and ODc is the mean optical density of untreated cells. The relation between surviving cells and drug concentration is plotted to get the survival curve of each tumor cell line after treatment with the specified compound. The 50% inhibitory concentration (IC50), the concentration required to cause t oxic effects in 50% of intact cells, was estimated from graphic plots of the dose response curve for each conc. using Graphpad Prism software (San Diego, […]

[3] = Cytotoxic activity on normal cells, MTT viability assay; format: cell-based, human; conditions: human, MRC-5 normal lung fibroblast cells
Experimental: (§7) In this regard, the selectivity index (SI) was calculated as the ratio of cytotoxic effect on the normal cell line to the cytotoxic effect on the cancer cell line.
as §1, §2, §3, §4, §5, §6

[4] = test system: normal human lung fibroblast MRC-5 cells; test: as above; format: cell-based; conditions: Homo sapiens, MRC5, MRC-5, Table S10, read-out: Inhibitory %
Experimental: as §7, §1, §2, §3, §4, §5, §6

CC(=NNc1nc(N2CCOCC2)nc(N2CCOCC2)n1)c1ccccc1N [DMAT, 2-(1-(2-(4,6-dimorpholino-1,3,5-triazin-2-yl)hydrazono)ethyl)aniline]
DPPH Scavenging % ([1]; Conc. 2.5 μg/mL): 20.79%
DPPH Scavenging % ([1]; Conc. 5 μg/mL): 28.65%
DPPH Scavenging % ([1]; Conc. 10 μg/mL): 35.17%
DPPH Scavenging % ([1]; Conc. 20 μg/mL): 54.23%
DPPH Scavenging % ([1]; Conc. 40 μg/mL): 70.89%
DPPH Scavenging % ([1]; Conc. 80 μg/mL): 79.28%
DPPH Scavenging % ([1]; Conc. 160 μg/mL): 86.59%
DPPH Scavenging % ([1]; Conc. 320 μg/mL): 91.37%
DPPH Scavenging % ([1]; Conc. 640 μg/mL): 94.08%
DPPH Scavenging % ([1]; Conc. 1280 μg/mL): 95.31%
IC50 (DPPH scavenging) ([1]; antioxidant activity): 17.83 ± 0.65 mg/L (≈ 44.7 µM)
SI = CC50/IC50 ([2]; CC50 (MRC-5) / IC50 (A-549)): 1.30
viability at 2.5 µM ([2]; Homo sapiens, A549, A-549, sample conc. 2.5 µM, Table S5): 100%
inhibition at 2.5 µM ([2]; Homo sapiens, A549, A-549, sample conc. 2.5 µM, Table S5, read-out: Inhibitory %): 0%
viability at 5 µM ([2]; Homo sapiens, A549, A-549, sample conc. 5.0 µM, Table S5): 100%
inhibition at 5 µM ([2]; Homo sapiens, A549, A-549, sample conc. 5.0 µM, Table S5, read-out: Inhibitory %): 0%
viability at 9.8 µM ([2]; Homo sapiens, A549, A-549, sample conc. 9.8 µM, Table S5): 100%
inhibition at 9.8 µM ([2]; Homo sapiens, A549, A-549, sample conc. 9.8 µM, Table S5, read-out: Inhibitory %): 0%
viability at 19.6 µM ([2]; Homo sapiens, A549, A-549, sample conc. 19.6 µM, Table S5): 100%
inhibition at 19.6 µM ([2]; Homo sapiens, A549, A-549, sample conc. 19.6 µM, Table S5, read-out: Inhibitory %): 0%
viability at 39.1 µM ([2]; Homo sapiens, A549, A-549, sample conc. 39.1 µM, Table S5): 100%
inhibition at 39.1 µM ([2]; Homo sapiens, A549, A-549, sample conc. 39.1 µM, Table S5, read-out: Inhibitory %): 0%
viability at 78.4 µM ([2]; Homo sapiens, A549, A-549, sample conc. 78.4 µM, Table S5): 100%
inhibition at 78.4 µM ([2]; Homo sapiens, A549, A-549, sample conc. 78.4 µM, Table S5, read-out: Inhibitory %): 0%
viability at 156.8 µM ([2]; Homo sapiens, A549, A-549, sample conc. 156.8 µM, Table S5): 98%
inhibition at 156.8 µM ([2]; Homo sapiens, A549, A-549, sample conc. 156.8 µM, Table S5, read-out: Inhibitory %): 1.96%
viability at 313.7 µM ([2]; Homo sapiens, A549, A-549, sample conc. 313.7 µM, Table S5): 82.7%
inhibition at 313.7 µM ([2]; Homo sapiens, A549, A-549, sample conc. 313.7 µM, Table S5, read-out: Inhibitory %): 17.3%
viability at 627.4 µM ([2]; Homo sapiens, A549, A-549, sample conc. 627.4 µM, Table S5): 39.6%
inhibition at 627.4 µM ([2]; Homo sapiens, A549, A-549, sample conc. 627.4 µM, Table S5, read-out: Inhibitory %): 60.4%
viability at 1254.8 µM ([2]; Homo sapiens, A549, A-549, sample conc. 1254.8 µM, Table S5): 17.6%
inhibition at 1254.8 µM ([2]; Homo sapiens, A549, A-549, sample conc. 1254.8 µM, Table S5, read-out: Inhibitory %): 82.4%
IC50 ([2]; Homo sapiens, A549, A-549 cells, 24 h, MTT): 551 µM
viability at 24 h, 2.5 µM ([3]; MRC-5, sample conc. 2.5 µM, Table S10): 100%
viability at 24 h, 5 µM ([3]; MRC-5, sample conc. 5.0 µM, Table S10): 100%
viability at 24 h, 9.8 µM ([3]; MRC-5, sample conc. 9.8 µM, Table S10): 100%
viability at 24 h, 19.6 µM ([3]; MRC-5, sample conc. 19.6 µM, Table S10): 100%
viability at 24 h, 39.1 µM ([3]; MRC-5, sample conc. 39.1 µM, Table S10): 100%
viability at 24 h, 78.4 µM ([3]; MRC-5, sample conc. 78.4 µM, Table S10): 100%
viability at 24 h, 156.8 µM ([3]; MRC-5, sample conc. 156.8 µM, Table S10): 99.8%
viability at 24 h, 313.7 µM ([3]; MRC-5, sample conc. 313.7 µM, Table S10): 89.3%
viability at 24 h, 627.4 µM ([3]; MRC-5, sample conc. 627.4 µM, Table S10): 53.9%
viability at 24 h, 1254.8 µM ([3]; MRC-5, sample conc. 1254.8 µM, Table S10): 26.1%
CC50 at 24 h ([3]; MRC-5 cells, 24 h, MTT): 716 µM
inhibition at 2.5 µM ([4]; sample conc. 2.5 µM): 0%
inhibition at 5 µM ([4]; sample conc. 5.0 µM): 0%
inhibition at 9.8 µM ([4]; sample conc. 9.8 µM): 0%
inhibition at 19.6 µM ([4]; sample conc. 19.6 µM): 0%
inhibition at 39.1 µM ([4]; sample conc. 39.1 µM): 0%
inhibition at 78.4 µM ([4]; sample conc. 78.4 µM): 0%
inhibition at 156.8 µM ([4]; sample conc. 156.8 µM): 0.15%
inhibition at 313.7 µM ([4]; sample conc. 313.7 µM): 10.7%
inhibition at 627.4 µM ([4]; sample conc. 627.4 µM): 46.1%
inhibition at 1254.8 µM ([4]; sample conc. 1254.8 µM): 73.9%
